From patent US20220354835A1, “COMPOUNDS FOR DEGRADING TAU PROTEIN AGGREGATES AND USES THEREOF” (Aprinoia Therapeutics Limited, priority 2019, published 2022)

Experiments:
[1] = target: T1, heparin-induced aggregated tau (aTau), full-length 2N4R human Tau (Homo sapiens, UniProt P10636); test: In vitro fluorometric aTau binding assay; details: 0.04 μM aTau, serially diluted compound 10 to 0.00017 μM, 37° C. 1 hour, fluorescence
T1 construct: transformed with a full-length 2N4R tau expression plasmid; made in house; host or cells: E. coli BL21
Procedure: (§1) (A) Expression and purification of human Tau: 1 mM IPTG (Sangon Biotech, Cat. No A100487) was used to induce production of tau by bacteria (BL21, Invitrogen, Cat. No C600003) transformed with a full-length 2N4R tau expression plasmid. After 3 hours, cell pellet was resuspended in lysis buffer (100 mM PIPES, 1 mM EGTA, 1 mM MgSO4, pH 6.8) and lysed by sonication followed by centrifugation (15,000 rpm, 15 min, 4° C.). The supernatant was then placed in a boiling water bath for 20 min, followed by centrifugation (15,000 rpm, 15 min, 4° C.). Supernatant was loaded onto a Q-Sepharose® Fast Flow column (GE healthcare, Cat. No 17-0510-01), the flow-through fraction was loaded onto an SP-Sepharose® Fast Flow column (GE healthcare, Cat. No 17-0729-01), and tau protein was eluted with elution buffer (100 mM PIPES, 1 M NaCl, 1 mM EGTA, 1 mM MgSO4, 0.2 M NaCl, pH 6.8). Collected fractions of tau-containing eluates were pooled, concentrated and dialyzed against HEPES buffer (25 mM HEPES, 0.1 mM EDTA, 0.5 mM DTT, 100 mM NaCl, pH 7.2) and stored at −80° C. in small aliquots until use. Protein concentration was determined by UV absorption.
(§2) (B) Preparation of heparin-induced aggregated tau (aTau): 2 μM of tau prepared in 30 mM Tris-HCl, pH 7.5 buffer was incubated in tube with 15 μM heparin (Sigma, Cat. No H3149) at 37° C. for 24 hours.
(D) In vitro fluorometric aTau binding assays: 2 μM aTau was diluted to 0.04 μM with 30 mM Tris-HCl (pH 6.8), and then incubated with serially diluted compound (three-fold serial dilutions, from 10 to 0.00017 μM) in a 96-well plate (Corning, Cat. No 3573) at 37° C. for 1 hour. Fluorescence intensity (excitation/emission=370/500 nm) of APN-0729 was read by microplate spectrometer (EnSpire 2300, PerkinElmer). Compound Kd values were calculated using the following equation: Y=Bmax* X (Kd+X), where X is the concentration of compound; Y is the fluorescence signal of (compound+aTau)−(compound+DMSO); and Bmax is the maximum signal.

[2] = target: T1, heparin-induced aggregated tau (aTau), full-length 2N4R human Tau; test: PBB5 competition assay; assay type: binding; details: 0.12 μM aTau
Procedure: as §1, §2
(E) PBBS competition assay: 2 μM of aTau was diluted to 0.12 μM by […] (pH 6.8) and then incubated with 0.1 μM 2-(4-(2-(methylamino)pyridine-5-yl)-1,3-butadiene-1-yl)benzothiazole-6-ol (PBB5) and serially diluted compound (three-fold serial dilution, from 10 to 0.00017 μM) in a 96-well plate (Corning, Cat. No 3573) at 37° C. for 1 hour. Fluorescence intensity (excitation/emission=530/690 nm) of PBB5 was read by microplate spectrometer (EnSpire 2300, PerkinElmer). Percentage of competition was calculated using the following equation: (Max−well of compound alone)/(Max−Min)*100%, where Max=(Tau+PBB5) signals−(buffer+PBB5) signals; and Min=(buffer+PBB5) signals−(buffer+PBB5) signals.
The IC50 value of each compound was calculated with GraphPad Prism software using the “4 Parameter Logistic Model or Sigmoidal Dose-Response Model”:
Y=Bottom+(Top−Bottom)/(1+(IC50/×)^HillSlope)

T1 sequence (P10636 1-441 isoform P10636-8): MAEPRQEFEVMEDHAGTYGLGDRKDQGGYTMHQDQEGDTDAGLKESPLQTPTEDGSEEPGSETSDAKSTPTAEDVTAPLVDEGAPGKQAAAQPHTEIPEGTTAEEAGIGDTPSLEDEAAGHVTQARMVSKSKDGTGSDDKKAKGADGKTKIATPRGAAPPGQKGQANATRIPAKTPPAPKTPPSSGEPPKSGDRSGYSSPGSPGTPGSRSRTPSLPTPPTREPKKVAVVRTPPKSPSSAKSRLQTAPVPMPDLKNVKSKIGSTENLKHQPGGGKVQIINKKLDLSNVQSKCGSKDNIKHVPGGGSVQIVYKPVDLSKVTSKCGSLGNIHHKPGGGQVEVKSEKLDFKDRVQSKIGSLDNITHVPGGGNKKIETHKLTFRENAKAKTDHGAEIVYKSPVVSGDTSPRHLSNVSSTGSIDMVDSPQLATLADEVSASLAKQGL

## CN(C)c1ccc(-c2ccc(-c3nc4ccc(NCCOCCOc5ccc6c(c5)CN(C5CCC(=O)NC5=O)C6=O)cc4s3)cc2)cn1 (stereo not drawn) [Compound 160313, 3-[6-[2-[2-[[2-[4-[6-(dimethylamino)pyridin-3-yl]phenyl]-1,3-benzothiazol-6-yl]amino]ethoxy]ethoxy]-3-oxo-1H-isoindol-2-yl]piperidine-2,6-dione]
[1]
  Kd: 80 nM
[2]; 0.1 μM PBB5, 37° C. 1 hour, PBB5 fluorescence 530/690 nm
  IC50: 220 nM
[2]; 0.1 μM PBB5, compound up to 10 μM, read-out: Competition Assay with PBB5: Bmax (%)
  Emax: 64%
